# According to US20140137274A1, “INDUCED MALIGNANT STEM CELLS” (LSIP, LLC, priority 2011, published 2014):
# System: cancer-related miRNAs
# Test: miRNA expression microarray (SurePrint G3 Human miRNA Microarray Rel.16.0)
# Details: logarithmic (log2) value of quotient vs control
# Procedure: Total RNA was prepared from each of six induced malignant stem cells, one induced non-malignant stem cell, and one induced pluripotent stem cell as mentioned above, and the prepared total RNAs were used in Agilent SurePrint G3 Human miRNA Microarray Rel.16.0 to detect abnormal expression (increased or reduced/lost expression) of non-coding RNAs such as endogenous cancer-related microRNAs in the induced malignant stem cells.
# Complete Labeling Reagent and Hyb Kit in accordance with the Agilent protocol. To be specific, each sample total RNA (100 ng) was dephosphorylated with Calf Intestine Alkaline Phosphatase (CIP), and the RNA molecule on its 3′ terminal side was labeled with a cyanine 3-cytidine bisphosphate (pCp-Cy3) molecule using T4 RNA Ligase.
# The RNA samples labeled in (14-2-3) were hybridized with SurePrint G3 Human miRNA Microarray Rel.16.0 using Agilent miRNA Complete Labeling Reagent and Hyb Kit. To be specific, each of the labeled RNAs was added to a hybridization buffer and allowed to hybridize on SurePrint G3 Human miRNA Microarray Rel.16.0 for 20 hours. After washing, the DNA microarray image was scanned by Agilent Microarray Scanner, and fluorescence signals from the spots were digitized by Feature Extraction Software (v.10.7.3.1).
# The miRNAs were annotated using miRBase Release 18, and hybridization was performed onto a microarray chip with the probes designed for the miRNAs shown in the following table (refer to Table 31 below).
# In this analysis, the normalized value of the digital data for the hybridization of a subject cell (induced malignant stem cell) sample was divided by the normalized value from the digital data for the hybridization of a control cell sample and the quotient was used as a measure of variation in expression. Probes for which the quotients deviated from 1 (i.e., log21=0) were considered to indicate a variation in expression; those showing quotients greater than 2 (log22=1) or smaller than 0.5 (log20.5=−1) were selected. For each of the comparisons shown below, the genes shown in the tyrosine kinase list and those shown in the cancer drug targets list were analyzed to make respective lists of the genes showing quotients greater than 2 (log22=1) or smaller than 0.5 (log20.5=−1), as compared with the quotient for the control (taken as 1). The analysis was performed using GeneSpring 12.1.
# The Normalized column represents a variation in expression in logarithmic values.
Substance,"Normalized (variation in microRNA expression, subject cell / control cell) ([gc2_10]vs +Nfb2_17])","Normalized (variation in microRNA expression, subject cell / control cell) ([gc2_1]vs [Nfb2_17])","Normalized (variation in microRNA expression, subject cell / control cell) ([gc2_5]vs [Nfb2_17])","Normalized (variation in microRNA expression, subject cell / control cell) ([cc4_c]vs [Nfb2_17])","Normalized (variation in microRNA expression, subject cell / control cell) ([gc1_6]vs [Ngc1_7])",further results
hsa-miR-I7-5p (CTACCTGCACTGTAAGC; chemistry not given here),−3.619,,,,,
hsa-miR-25-3p (TCAGACCGAGACAAGTGC; chemistry not given here),−1.515,−1.899,−1.478,,,
hsa-miR-210 (TCAGCCGCTGTCACAC; chemistry not given here),,,−1.628,3.796,,"Normalized (variation in microRNA expression, subject cell / control cell) ([Ngc1_7]vs [Nib2_17]): 1.643; Normalized (variation in microRNA expression, subject cell / control cell) ([gcl_6]vs [Nfb2_17]): 2.036"
hsa-let-7d-5p (AACTATGCAACCTACTACC; chemistry not given here),,,,,−1.545,
hsa-miR-125a-5p (TCACAGGTTAAAGGGTCTC; chemistry not given here),,,−1.149,1.809,−1.373,
hsa-miR-15a-5p (CACAAACCATTATGTGCTGCT; chemistry not given here),,,,1.163,,
hsa-miR-7-5p (ACAACAAAATCACTAGTCTTCC; chemistry not given here),,,,2.213,,
hsa-let-7b-5p (AACCACACAACCTACTACC; chemistry not given here),,,,,−1.937,
hsa-miR-125b-5p (TCACAAGTTAGGGTCTC; chemistry not given here),,−1.425,−2.411,2.946,−1.393,"Normalized (variation in microRNA expression, subject cell / control cell) ([Ngc1_7]vs [Nib2_17]): 1.982"
hsa-miR-124-3p (GGCATTCACCGCGTGC; chemistry not given here),,,,,,"Normalized (variation in microRNA expression, subject cell / control cell) ([Ngc1_7]vs [Nib2_17]): 1.242; Normalized (variation in microRNA expression, subject cell / control cell) ([gcl_6]vs [Nfb2_17]): 1.88"
hsa-miR-34a-5p (ACAACCAGCTAAGACACTGC; chemistry not given here),−2.706,−2.608,−2.833,,,
hsa-miR-27b-3p (GCAGAACTTAGCCACTGT; chemistry not given here),−2.297,−2.575,,2.569,,
hsa_miR-301a-3p (GCTTTGACAATACTATTGCAC; chemistry not given here),,,,−1.212,,
